In ChEMBL document CHEMBL5625250, “Discovery of novel flavonoid-based CDK9 degraders for prostate cancer treatment via a PROTAC strategy” (Eur J Med Chem, 2023):
≈ marks a conversion by molar mass, not a printed value. Calls of active or inactive are those of the source. No cut-off for these calls is given here.

Assays:
[1] = target: T1, Protein cereblon/Cyclin-dependent kinase 9 (Homo sapiens, UniProt P50750+Q96SW2); test: PROTAC activity at CRBN/CDK9 in human 22Rv1 cells assessed as degradation of CDK9 protein at 100 nM incubated for 12 hrs by Western blotting analysis relative to control; format: cell-based
Target sequence in this assay (P50750 whole entry, looked up): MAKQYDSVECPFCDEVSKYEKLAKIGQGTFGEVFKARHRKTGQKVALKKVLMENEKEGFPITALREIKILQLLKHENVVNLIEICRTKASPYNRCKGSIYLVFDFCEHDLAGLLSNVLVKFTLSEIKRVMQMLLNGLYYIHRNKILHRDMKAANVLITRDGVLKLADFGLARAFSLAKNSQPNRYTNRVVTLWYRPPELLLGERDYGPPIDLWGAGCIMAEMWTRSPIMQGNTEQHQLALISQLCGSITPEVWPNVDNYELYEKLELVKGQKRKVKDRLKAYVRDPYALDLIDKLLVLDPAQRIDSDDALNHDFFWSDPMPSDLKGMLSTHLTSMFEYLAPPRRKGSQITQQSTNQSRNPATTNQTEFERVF
Target sequence in this assay (Q96SW2 whole entry, looked up): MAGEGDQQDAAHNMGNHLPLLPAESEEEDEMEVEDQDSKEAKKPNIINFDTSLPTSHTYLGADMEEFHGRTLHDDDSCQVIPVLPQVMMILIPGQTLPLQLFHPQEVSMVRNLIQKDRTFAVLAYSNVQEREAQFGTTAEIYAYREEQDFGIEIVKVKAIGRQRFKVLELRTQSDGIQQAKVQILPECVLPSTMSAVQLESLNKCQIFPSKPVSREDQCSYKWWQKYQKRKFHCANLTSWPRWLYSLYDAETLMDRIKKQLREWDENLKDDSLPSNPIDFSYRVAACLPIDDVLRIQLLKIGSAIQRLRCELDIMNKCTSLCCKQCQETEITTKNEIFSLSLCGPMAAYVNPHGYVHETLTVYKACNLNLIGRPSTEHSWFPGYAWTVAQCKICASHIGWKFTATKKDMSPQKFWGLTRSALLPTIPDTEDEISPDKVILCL

[2] = target: Cyclin-dependent kinase 4 (Homo sapiens) (UniProt P11802); test: Induction of CDK4 protein degradation in human 22Rv1 cells at 500 nM incubated for 12 hrs by Western blotting analysis; format: cell-based
[3] = target: T1, Protein cereblon/Cyclin-dependent kinase 9; test: PROTAC activity at CRBN/CDK9 in human 22Rv1 cells assessed as degradation of CDK9 protein at 100 nM by Western blotting analysis; format: cell-based; conditions: time 2-24 hrs, TDE = time-dependent effect
Target sequence in this assay (P50750 whole entry, looked up): as the sequence (P50750 whole entry, looked up) above
Target sequence in this assay (Q96SW2 whole entry, looked up): as the sequence (Q96SW2 whole entry, looked up) above

CWR22R [4] = test: In vivo degradation of c-Myc expression in human 22Rv1 cells xenografted in BALB/c mouse tumor at 20 mg/kg, iv administered for 18 days by Western blotting analysis; format: functional, organism-based; conditions: time 18.0 day
[5] = Half life in Sprague-Dawley rat at 2 mg/kg, iv by LC-MS/MS analysis; format: ADME, organism-based; conditions: in vivo
[6] = target: T1, Protein cereblon/Cyclin-dependent kinase 9; test: PROTAC activity at CRBN/CDK9 in human 22Rv1 cells assessed as reduction in Mcl-1 expression incubated for 24 hrs by Western blotting analysis; format: cell-based; conditions: dose 0.1-1.5 µM
Target sequence in this assay (P50750 whole entry, looked up): as the sequence (P50750 whole entry, looked up) above
Target sequence in this assay (Q96SW2 whole entry, looked up): as the sequence (Q96SW2 whole entry, looked up) above

[7] = Solubility of the compound in water at pH 6.0 by shake flask method; format: physicochemical
CWR22R [8] = test: In vivo degradation of Mcl-1 expression in human 22Rv1 cells xenografted in BALB/c mouse tumor at 20 mg/kg, iv administered for 18 days by Western blotting analysis; format: functional, organism-based; conditions: time 18.0 day
[9] = target: T1, Protein cereblon/Cyclin-dependent kinase 9; test: PROTAC activity at CRBN/CDK9 in human 22Rv1 cells assessed as degradation of CDK9 protein at 0.1 uM incubated for 12 hrs in presence of MG132 by Western blotting analysis; format: cell-based
Target sequence in this assay (P50750 whole entry, looked up): as the sequence (P50750 whole entry, looked up) above
Target sequence in this assay (Q96SW2 whole entry, looked up): as the sequence (Q96SW2 whole entry, looked up) above

[10] = target: T1, Protein cereblon/Cyclin-dependent kinase 9; test: PROTAC activity at CRBN/CDK9 in human 22Rv1 cells assessed as degradation of CDK9 protein at 0.1 uM incubated for 12 hrs in presence of thalidomide by Western blotting analysis; format: cell-based
Target sequence in this assay (P50750 whole entry, looked up): as the sequence (P50750 whole entry, looked up) above
Target sequence in this assay (Q96SW2 whole entry, looked up): as the sequence (Q96SW2 whole entry, looked up) above

CWR22R [11] = test: Antiproliferative activity against human 22Rv1 cells assessed as reduction in colony formation incubated for 2 weeks by crystal violet staining based assay; format: functional, cell-based; conditions: dose 7.8-62.5 nM
[12] = target: T2, Cyclin-dependent kinase 9 (Homo sapiens, UniProt P50750); test: Inhibition of CDK9 (unknown origin) at 20 nM in presence of ATP by ADP-Glo kinase assay relative to control
[13] = target: Cyclin-dependent kinase 6 (Homo sapiens) (UniProt Q00534); test: Induction of CDK6 protein degradation in human 22Rv1 cells at 500 nM incubated for 12 hrs by Western blotting analysis; format: cell-based
CWR22R [14] = test: Antitumor activity against human 22Rv1 cells xenografted in BALB/c mouse assessed as tumor growth inhibition at 20 mg/kg, iv administered for 20 days relative to control; format: functional; conditions: 22Rv1, 480 h, time 20 day, read-out: TGI
[15] = target: Cyclin-dependent kinase 5 (Homo sapiens) (UniProt Q00535); test: Induction of CDK5 protein degradation in human 22Rv1 cells at 500 nM incubated for 12 hrs by Western blotting analysis; format: cell-based
CWR22R [16] = test: Antitumor activity against human 22Rv1 cells assessed as complete reduction in colony formation at 60 nM incubated for 2 weeks by crystal violet staining based assay; format: functional; design: scale not given: the % may be the effect or the level left
[17] = Metabolic stability in human liver microsome assessed as half life at 10 uM by LC-MS/MS analysis; format: ADME; conditions: liver microsomes
[18] = Toxicity in BALB/c mouse xenografted with human 22Rv1 cells assessed as mortality at 10 to 20 mg/kg, iv administered for 20 days; format: organism-based, CWR22R; conditions: in vivo, 480 h, dose 10-20 mg/kg, time 20 day
[19] = Solubility of the compound in water at pH 7.4 by shake flask method; format: physicochemical
CWR22R [20] = test: Antitumor activity against human 22Rv1 cells assessed as complete reduction in colony formation incubated for 2 weeks by crystal violet staining based assay; format: functional, cell-based; conditions: dose 7.8-62.5 nM
[21] = target: T1, Protein cereblon/Cyclin-dependent kinase 9; test: PROTAC activity at CRBN/CDK9 in human 22Rv1 cells assessed as reduction in RNAPII-ser 2 phosphorylation incubated for 24 hrs by Western blotting analysis; format: cell-based; conditions: dose 0.1-1.5 µM
Target sequence in this assay (P50750 whole entry, looked up): as the sequence (P50750 whole entry, looked up) above
Target sequence in this assay (Q96SW2 whole entry, looked up): as the sequence (Q96SW2 whole entry, looked up) above

[22] = target: Cyclin-dependent kinase 2 (Homo sapiens) (UniProt P24941); test: Induction of CDK2 protein degradation in human 22Rv1 cells at 500 nM incubated for 12 hrs by Western blotting analysis; format: cell-based
CWR22R [23] = test: In vivo degradation of c-Myc protein level in human 22Rv1 cells xenografted in BALB/c mouse tumor at 20 mg/kg, iv administered for 18 days by immunohistochemistry analysis; format: functional, organism-based; conditions: time 18.0 day
[24] = target: T1, Protein cereblon/Cyclin-dependent kinase 9; test: PROTAC activity at CRBN/CDK9 in human 22Rv1 cells assessed as degradation of CDK9 protein incubated for 12 hrs by Western blotting analysis; format: cell-based
[25] = Toxicity in BALB/c mouse xenografted with human 22Rv1 cells assessed as change in body weight at 10 mg/kg, iv administered for 20 days relative to control; format: organism-based, CWR22R; conditions: in vivo, 480 h, time 20 day
[26] = target: T2, Cyclin-dependent kinase 9; test: Inhibition of CDK9 (unknown origin) in presence of ATP by ADP-Glo kinase assay
[27] = Toxicity in BALB/c mouse xenografted with human 22Rv1 cells assessed as change in body weight at 20 mg/kg, iv administered for 20 days relative to control; format: organism-based, CWR22R; conditions: in vivo, 480 h, time 20 day
[28] = AUC in Sprague-Dawley rat at 2 mg/kg, iv by LC-MS/MS analysis; format: ADME, organism-based; conditions: in vivo
CWR22R [29] = test: In vivo degradation of Ki67 protein level in human 22Rv1 cells xenografted in BALB/c mouse tumor at 20 mg/kg, iv administered for 18 days by immunohistochemistry analysis; format: functional, organism-based; conditions: time 18.0 day
[30] = target: T1, Protein cereblon/Cyclin-dependent kinase 9; test: PROTAC activity at CRBN/CDK9 in human 22Rv1 cells assessed as reduction in c-Myc expression incubated for 24 hrs by Western blotting analysis; format: cell-based; conditions: dose 0.1-1.5 µM
CWR22R [31] = test: In vivo degradation of CDK9 protein level in human 22Rv1 cells xenografted in BALB/c mouse tumor at 20 mg/kg, iv administered for 18 days by immunohistochemistry analysis; format: functional, organism-based; conditions: time 18.0 day
CWR22R [32] = test: Antiproliferative activity against human 22Rv1 cells assessed as reduction in cell viability incubated for 72 hrs by SRB assay; format: functional, cell-based; conditions: 22Rv1, 72 h
CWR22R [33] = test: In vivo degradation of CDK9 expression in human 22Rv1 cells xenografted in BALB/c mouse tumor at 20 mg/kg, iv administered for 18 days by Western blotting analysis; format: functional, organism-based; conditions: time 18.0 day
[34] = target: T1, Protein cereblon/Cyclin-dependent kinase 9; test: PROTAC activity at CRBN/CDK9 in human 22Rv1 cells assessed as degradation of CDK9 protein at 0.1 uM incubated for 12 hrs in presence of LWT-111 by Western blotting analysis; format: cell-based
[35] = target: Cyclin-dependent kinase 7 (Homo sapiens) (UniProt P50613); test: Induction of CDK7 protein degradation in human 22Rv1 cells at 500 nM incubated for 12 hrs by Western blotting analysis; format: cell-based
[36] = Apparent volume of distribution in Sprague-Dawley rat at 2 mg/kg, iv by LC-MS/MS analysis; format: ADME, organism-based; conditions: in vivo, read-out: Vz
[37] = target: T1, Protein cereblon/Cyclin-dependent kinase 9; test: PROTAC activity at CRBN/CDK9 in human 22Rv1 cells assessed as degradation of CDK9 protein at 500 nM incubated for 12 hrs by Western blotting analysis; format: cell-based
CWR22R [38] = test: Antitumor activity against human 22Rv1 cells xenografted in BALB/c mouse assessed as tumor growth inhibition at 10 mg/kg, iv administered for 20 days relative to control; format: functional; conditions: 22Rv1, 480 h, time 20 day, read-out: TGI
CWR22R [39] = test: In vivo degradation of ARv7 expression in human 22Rv1 cells xenografted in BALB/c mouse tumor at 20 mg/kg, iv administered for 18 days by Western blotting analysis; format: functional, organism-based; conditions: time 18.0 day
[40] = target: T1, Protein cereblon/Cyclin-dependent kinase 9; test: PROTAC activity at CRBN/CDK9 in human 22Rv1 cells assessed as reduction in cyclin T1 expression at 0.1 to 1.5 uM incubated for 24 hrs by Western blotting analysis; format: cell-based; conditions: dose 0.1-1.5 µM

T2 sequence (P50750 whole entry): as the sequence (P50750 whole entry, looked up) above
Chain of Cyclin-dependent kinase 5 (Homo sapiens) (Q00535 whole entry, looked up): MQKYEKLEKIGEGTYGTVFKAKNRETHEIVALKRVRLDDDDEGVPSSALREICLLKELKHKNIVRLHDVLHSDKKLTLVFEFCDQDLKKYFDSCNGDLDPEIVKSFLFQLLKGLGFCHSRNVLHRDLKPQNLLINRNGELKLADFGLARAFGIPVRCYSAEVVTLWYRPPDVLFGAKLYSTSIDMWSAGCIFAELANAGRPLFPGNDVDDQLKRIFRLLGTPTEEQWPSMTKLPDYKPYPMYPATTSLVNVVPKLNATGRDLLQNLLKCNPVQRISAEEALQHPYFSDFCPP
Chain of Cyclin-dependent kinase 4 (Homo sapiens) (P11802 whole entry): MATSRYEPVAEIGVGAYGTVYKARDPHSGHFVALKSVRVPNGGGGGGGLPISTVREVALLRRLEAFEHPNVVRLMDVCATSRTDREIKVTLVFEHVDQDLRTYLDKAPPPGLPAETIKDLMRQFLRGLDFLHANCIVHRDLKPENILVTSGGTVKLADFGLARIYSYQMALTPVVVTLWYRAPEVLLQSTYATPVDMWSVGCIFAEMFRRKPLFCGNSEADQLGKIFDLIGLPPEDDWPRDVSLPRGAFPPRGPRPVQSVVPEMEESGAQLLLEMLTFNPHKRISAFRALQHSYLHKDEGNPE
Chain of Cyclin-dependent kinase 6 (Homo sapiens) (Q00534 whole entry): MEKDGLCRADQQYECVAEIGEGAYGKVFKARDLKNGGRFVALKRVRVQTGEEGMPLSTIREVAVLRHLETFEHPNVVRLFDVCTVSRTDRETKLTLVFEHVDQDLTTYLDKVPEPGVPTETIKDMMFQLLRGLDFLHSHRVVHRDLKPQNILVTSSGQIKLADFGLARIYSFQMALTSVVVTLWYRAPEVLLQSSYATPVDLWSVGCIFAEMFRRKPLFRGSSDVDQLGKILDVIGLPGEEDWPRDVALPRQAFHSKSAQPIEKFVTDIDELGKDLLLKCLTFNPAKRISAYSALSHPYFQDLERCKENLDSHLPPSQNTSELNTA
Chain of Cyclin-dependent kinase 7 (Homo sapiens) (P50613 whole entry): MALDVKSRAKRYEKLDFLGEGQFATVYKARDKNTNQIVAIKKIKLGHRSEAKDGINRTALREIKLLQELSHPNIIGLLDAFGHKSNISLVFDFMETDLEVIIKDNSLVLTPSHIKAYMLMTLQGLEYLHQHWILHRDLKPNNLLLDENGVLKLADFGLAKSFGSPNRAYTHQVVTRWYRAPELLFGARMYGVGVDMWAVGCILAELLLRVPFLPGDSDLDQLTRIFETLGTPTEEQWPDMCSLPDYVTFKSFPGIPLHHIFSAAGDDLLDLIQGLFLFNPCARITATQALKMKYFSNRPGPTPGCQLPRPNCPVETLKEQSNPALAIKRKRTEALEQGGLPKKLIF

## COc1cc(O)c2c(=O)cc(-c3ccc(N4CCN(CC5CCN(c6ccc7c(c6)C(=O)N(C6CCC(=O)NC6=O)C7=O)CC5)CC4)cc3)oc2c1C1=CCN(C)CC1 (stereo unspecified)
[1]
  Activity: 80%
[2]
  Activity: inactive
[3]
  Activity: Tde
CWR22R [4]
  Activity: Active
[5]
  half-life: 11.1 h
[6]
  Activity: Dose-Dependent Effect
[7]
  solubility thermodynamic: 125 µg/mL (≈ 156 µM)
CWR22R [8]
  Activity: Active
[9]
  Activity: inactive
[10]
  Activity: inactive
CWR22R [11]
  Activity: Dose-Dependent Effect
[12]
  inhibition: 85.6%
[13]
  Activity: inactive
CWR22R [14]
  inhibition in vivo at 20 mg/kg: 75.1%
[15]
  Activity: inactive
CWR22R [16]
  Activity: 100%
[17]
  half-life at 10 µM: 1.62 h
[18]
  Activity: Non-Toxic
[19]
  solubility thermodynamic: 53 µg/mL (≈ 66.2 µM)
CWR22R [20]
  Activity: Dose-Dependent Effect
[21]
  Activity: Dose-Dependent Effect
[22]
  Activity: inactive
CWR22R [23]
  Activity: Active
[24]
  Activity: Dose-Dependent Effect
  DC50: 43 nM
[25]
  Activity: 12.5%
[26]
  IC50: 3.3 nM
[27]
  Activity: 15.3%
[28]
  AUC: 681 ng·h/mL
CWR22R [29]
  Activity: Active
[30]
  Activity: Dose-Dependent Effect
CWR22R [31]
  Activity: Active
CWR22R [32]
  IC50: 60 nM
CWR22R [33]
  Activity: Active
[34]
  Activity: inactive
[35]
  Activity: inactive
[36]
  Vd: 22.6 L/kg
[37]
  Activity: 100%
CWR22R [38]
  inhibition in vivo at 10 mg/kg: 65.7%
CWR22R [39]
  Activity: Active
[40]
  Activity: Active
